Patent publication US20100260841A1, “Method of Treating Atherosclerosis, Dyslipidemias and Related Conditions” (priority 2007, published 2010)

What was measured:
[1] = patients, Compound E alone or coadministered with ERN
Protocol: (§1) Patients (N=412) were randomized to ERN 1 gram (given as Niaspan®, with no prior titration) plus compound E placebo, 18.75, 37.5, 75 or 150 mg, or double placebo for 4 weeks (acute phase) with doubling of the respective doses for the remaining 4 weeks (chronic phase). Patients reported flushing intensity using the validated Global Flushing Severity Score (GFSS); none/mild (0-3), moderate (4-6), severe (7-9) and extreme (10) in a daily eDiary. A subset of patients was randomized to compound E 150 mg versus placebo in a 4-week crossover safety study.

[2] = system: extended-release niacin (ERN) induced flushing; details: patients
Protocol: as §1

[3] = system: lipid altering effects of ERN; details: patients, Compound E 150 mg with ERN

Compound: CS(=O)(=O)c1cc(F)cc2c3c(n(Cc4ccc(Cl)cc4)c12)[C@@H](CC(=O)O)CC3 [Compound E]
- incidence of adverse experiences [1]: low incidence
- acute phase flushing intensity compared to ERN alone ([2]; Compound E plus ERN 1 gram, first 4 weeks, GFSS, dose-response p<0.001): significantly lower
- chronic phase flushing intensity compared to ERN alone ([2]; Compound E plus ERN, doubled doses, remaining 4 weeks, GFSS, dose-response p=0.021): significantly lower
- tolerability and achievement of optimal therapeutic dosing of niacin ([2]; Compound E with ERN treatment): significantly improved
- flushing intensity versus ERN alone at each coadministered dose ([2]; each coadministered dose of Compound E (18.75, 37.5, 75 or 150 mg), p<0.05): significantly (p<0.05) lower flushing intensity
- impact on the lipid altering effects of ERN [3]: did not significantly impact
